Experimental data taken from patent US20210330659A1, “USE OF NICOTINAMIDE COMPOSITION IN PREPARATION OF DRUG FOR TREATING HAND-FOOT SKIN REACTION INDUCED BY SORAFENIB” (ZHEJIANG UNIVERSITY, priority 2018, published 2021).

Experiments:
[1] = test system: keratin 1, keratin 10 and Loricrin in HaCaT cells; assay: mRNA levels of keratinization indicators in HaCaT cells given HUVEC conditioned medium; format: cell-based
Experimental: (§1) HUVEC cells were administrated with 15 μM sorafenib. After that, the cells and the culture medium were separately collected, and the culture medium is concentrated. […] HUVEC culture medium treated with sorafenib, as a conditioned medium, was applied to HaCaT cells, and the expression of SIRT1 in the cells was detected. […] After HUVEC cells with HB-EGF knocked out were constructed, the culture medium obtained after administrated with sorafenib was administrated to the HaCaT cells, and mRNA levels of the keratinization progress indicators, i.e., keratin 1, keratin 10 and Loricrin, were detected. […] The HUVEC culture medium added with sorafenib, as the conditioned medium, was applied to the HaCaT cells in which SIRT1 was knocked out, and the mRNA levels of the three keratins were detected.
In an in vitro cell experimental model, HUVEC cells were administered with 15 μM sorafenib alone, and 15 μM sorafenib together with 10 μM nicotinamide, respectively. After 24 hours, the culture medium was collected as a conditioned medium for HaCaT cells, and the HaCaT cells were collected 24 hours later for the detection of mRNA levels of three keratins.

SIRT1 in HaCaT cells = assay: SIRT1 expression in HaCaT cells given sorafenib-treated HUVEC conditioned medium; format: cell-based; conditions: HaCaT cells given sorafenib-treated HUVEC culture medium as conditioned medium, FIG. 1B
Experimental: as §1

[2] = patients treated with sorafenib; cited from earlier work
[3] = test system: HB-EGF protein in HUVEC cells; assay: Western blot of pro-HB-EGF in cell lysate and s-HB-EGF in culture medium of sorafenib-treated HUVEC cells; format: cell-based; conditions: 15 μM sorafenib, FIG. 1A
Experimental: as §1

## NC(=O)c1cccnc1 [nicotinamide, 3-pyridinecarboxamide]
[1]; HUVEC treated 24 h with 10 μM nicotinamide plus 15 μM sorafenib, medium applied to HaCaT for 24 h, compared with sorafenib alone, FIG. 2
  mRNA levels of the three keratins (keratin 1, keratin 10, Loricrin): significantly down-regulated

## CNC(=O)c1cc(Oc2ccc(NC(=O)Nc3ccc(Cl)c(C(F)(F)F)c3)cc2)ccn1 [sorafenib]
SIRT1 in HaCaT cells
  expression of SIRT1 in HaCaT cells: up-regulated
[2]
  prevalence of hand-foot skin reaction (HFSR): up to 60%
[3]; HUVEC cells
  expression level of the HB-EGF protein in the cells (pro-HB-EGF, cell lysate): down-regulated
[3]; HUVEC culture medium, concentrated
  expression of HB-EGF protein in the culture medium (s-HB-EGF): increased
[1]; HaCaT cells given medium of sorafenib-treated HUVEC cells with HB-EGF knocked out, FIG. 1C
  mRNA levels of keratin 1, keratin 10 and Loricrin: down-regulated
[1]; SIRT1-knocked-out HaCaT cells given sorafenib-treated HUVEC conditioned medium, FIG. 1D
  mRNA levels of keratin 1, keratin 10 and Loricrin: also down-regulated
